Measured values from US11065234B2, “Estrogen receptor modulators” (Recurium IP Holdings, LLC, priority 2016, dated 2021).

Columns and labels:
MCF7 = assay: Breast Cancer Cell Proliferation Assay (MCF-7); type: cell-based; conditions: Homo sapiens, 120 h; MCF7 cells, 5 days of compound exposure, Cell Titer-Glo
Procedure: Breast Cancer Cell Proliferation Assay (MCF-7)
MCF7 was expanded and maintained in the medium (Phenol red free DMEM/F12 (Hyclone SH30272.01) NEAA (Gibco11140-050) Na-pyruvate (Gibco 11360-070) and Re-stripped Charcoal stripped FBS (Gemini 100-119)). The cells were adjusted to a concentration of 3,000 cells per mL in the above media, and the cells were incubated (37° C., 5% CO2). The following day a 10 point, serial dilution of compounds was added to the cells at a final concentration ranging from 10-0.000005 μM for test compounds (17β-estradiol was used as a control). Additional cells were plated in 30 wells to serve as the day 1 (pretreatment) comparison. After 5 days of compound exposure, Cell Titer-Glo reagent was added to the cells and the relative luminescence units (RLUs) of each well was determined. Cell Titer-Glo was also added to 32 μL of medium without cells to obtain a background value. The plates were allowed to incubate at room temperature for 10 minutes to stabilize luminescent signal and the luminescence signal was recorded with EnSpire. The relative increase in cell number of each sample is determined as follows: (RLU sample-RLU background/RLU estrogen only treated cells-RLU background)×100=% inhibition.

ERα = biological target: T1, ERα (Homo sapiens, UniProt P03372); assay: ER Degradation Determination by Western Blot; type: cell-based; conditions: MCF-7 cells, 10 μM, 18-24 hours
T1 construct: endogenous in cells; host or cells: MCF-7
T1 sequence (P03372 1-595): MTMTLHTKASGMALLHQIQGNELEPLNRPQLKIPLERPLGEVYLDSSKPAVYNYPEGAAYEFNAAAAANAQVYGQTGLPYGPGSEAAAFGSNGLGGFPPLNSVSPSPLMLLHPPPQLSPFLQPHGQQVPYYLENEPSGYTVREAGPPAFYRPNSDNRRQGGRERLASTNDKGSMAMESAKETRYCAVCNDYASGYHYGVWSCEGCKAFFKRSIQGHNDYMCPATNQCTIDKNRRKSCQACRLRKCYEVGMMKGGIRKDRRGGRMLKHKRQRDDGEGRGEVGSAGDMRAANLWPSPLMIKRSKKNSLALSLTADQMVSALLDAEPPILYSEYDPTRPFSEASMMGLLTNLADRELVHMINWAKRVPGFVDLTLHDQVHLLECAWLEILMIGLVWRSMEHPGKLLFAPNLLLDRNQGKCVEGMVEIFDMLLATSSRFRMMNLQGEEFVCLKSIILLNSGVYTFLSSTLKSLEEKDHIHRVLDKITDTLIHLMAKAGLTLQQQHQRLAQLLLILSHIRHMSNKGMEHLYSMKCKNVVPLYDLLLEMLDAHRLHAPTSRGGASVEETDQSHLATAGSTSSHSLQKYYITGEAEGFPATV
Procedure: ER Degradation Determination by Western Blot
MCF-7 cells are plated at 0.3 million cells/mL (3 mL/well) in 6-well plates in experiment media and incubated at 37° C., 5% CO2 for […]. Next day, 10× solution of compounds are made in DMSO and added the solution to the cells to achieve a final concentration of 10 μM. A DMSO control is included to enable a determination of the relative efficacy of test compounds. Fulvestrant is used as a positive control for ER-alpha degradation, and 4-OH tamoxifen as a control for receptor stabilization. After incubating cells with compounds for 18-24 hours, cell lysates are prepared (2× Cell lysis buffer:100 mM Tris, pH 8, 300 mM NaCl, 2% NP40, 1% Na deoxycholate, 0.04% SDS, 2 mM EDTA) and mixed thoroughly and incubated on ice. The protein concentration is quantified using BCA kit. […] The gel was then transferred onto a nitrocellulose membrane. […] GAPDH protein was used as an internal control.

[1] = Pharmacokinetic Determination (Rat PK); type: in vivo; conditions: plasma, female SD rats; for Vd: read-out: Vdss; for bioavailability: PO 10.0 mg/kg vs IV 3.0 mg/kg
Procedure: Example D Pharmacokinetic Determination
Grouping female SD rats weighing 200-300 g randomly to two groups; one group was administered with test compound at a dose of 3.0 mg/kg by intravenous injection, the other group was administered with test compound at a dose of 10.0 mg/kg by oral. The formulation for IV groups is DMSO/PEG400/150 mM glycine (pH 9) (5/10/85) and the formulation for PO groups is PEG400/PVP/Tween 80/0.5% CMC in water (9/0.5/0.5/90). After administering, blood samples of intravenous injection group were collected at time points of predose, 0.0833, 0.25, 0.5, 1, 2, 4, 8, 12 and 24 h; blood samples of oral group were collected at time points of predose, 0.25, 0.5, 1, 2, 4, 8, 12, and 24 h. Standard curve was plotted based on concentrations of the samples in a suitable range, the concentrations of test compounds in plasma samples were determined by using LC-MS/MS. Pharmacokinetic parameters were calculated according to drug concentration-time curve using a noncompartmental method by WinNonLin (Phoenix™, version 6.1) or other similar software.

Compound	IC50 (MCF7)	ERα % degradation (ERα)	AUC(0-inf) ([1]; IV, 3.0 mg/kg)	clearance ([1]; IV, 3.0 mg/kg)	half-life ([1]; IV, 3.0 mg/kg)	Vd ([1]; IV, 3.0 mg/kg)	bioavailability [1]	AUC(0-inf) ([1]; PO, 10.0 mg/kg)	Cmax ([1]; PO, 10.0 mg/kg)	Tmax ([1]; PO, 10.0 mg/kg)	half-life ([1]; PO, 10.0 mg/kg)	melting point
C[C@@H]1Cc2c([nH]c3ccccc23)[C@@H](c2c(F)cc(/C=C/C(=O)O)cc2F)N1CC(C)(C)F [AZD9496, (E)-3-(3,5-Difluoro-4-((1R,3R)2-(2-fluoro-2-methylpropyl)-3-methyl-2,3,4,9-tetrahydro-1H-pyrido[3,4b]indol-1-yl)phenyl)acrylic acid, reference compound]	≤ 25 nM	A (A = ERα % degradation ≥80%)	72 µM·h	1.6 mL/min/kg	7.8 h	0.8 L/kg	74%	179 µM·h	16.1 µM	4 h	6.4 h	–
C[C@@H]1Cc2c([nH]c3ccccc23)[C@@H](c2c(F)cc(/C=C/C(=O)O)cc2F)N1C12CC(C1)C2 [Example 11A, (E)-3-(4-((1R,3R)-2-(Bicyclo[1.1.1]pentan-1-yl)-3-methyl-2,3,4,9-tetrahydro-1H-pyrido[3,4-b]indol-1-yl)-3,5-difluorophenyl)acrylic acid]	≤ 25 nM	A (A = ERα % degradation ≥80%)	96 µM·h	1.2 mL/min/kg	4.2 h	0.48 L/kg	88%	283 µM·h	33 µM	–	3.5 h	–
C[C@@H]1Cc2c([nH]c3ccccc23)[C@@H](c2c(F)cc(/C=C/C(=O)O)cc2F)N1CC12CC(F)(C1)C2 [Example 14A, (E)-3-(3,5-Difluoro-4-((1R,3R)-2-((3-fluorobicyclo[1.1.1]pentan-1-yl)methyl)-3-methyl-2,3,4,9-tetrahydro-H-pyrido[3,4-b]indol-1-yl)phenyl)acrylic acid]	25 to 250 nM	B (B = ERα % degradation <80%)	–	–	–	–	–	–	–	–	–	–
C[C@@H]1Cc2c([nH]c3ccc(F)cc23)[C@@H](c2c(F)cc(/C=C/C(=O)O)cc2F)N1CC(C)(C)F [Example 21A, (E)-3-(3,5-Difluoro-4-((1R,3R)-6-fluoro-2-(2-fluoro-2-methylpropyl)-3-methyl-2,3,4,9-tetrahydro-1H-pyrido[3,4-b]indol-1-yl)phenyl)acrylic acid]	≤ 25 nM	–	–	–	–	–	–	–	–	–	–	128 to 130 °C

Second part, the compound after the results:

IC50 (MCF7)	ERα % degradation (ERα)	AUC(0-inf) ([1]; IV, 3.0 mg/kg)	clearance ([1]; IV, 3.0 mg/kg)	half-life ([1]; IV, 3.0 mg/kg)	Vd ([1]; IV, 3.0 mg/kg)	bioavailability [1]	AUC(0-inf) ([1]; PO, 10.0 mg/kg)	Cmax ([1]; PO, 10.0 mg/kg)	Tmax ([1]; PO, 10.0 mg/kg)	half-life ([1]; PO, 10.0 mg/kg)	melting point	Compound
≤ 25 nM	A (A = ERα % degradation ≥80%)	67 µM·h	1.7 mL/min/kg	7.7 h	1 L/kg	82%	185 µM·h	10.8 µM	2 h	8.5 h	–	C[C@@H]1Cc2c([nH]c3ccccc23)[C@@H](c2c(F)cc(/C=C/C(=O)O)cc2F)N1CC12CC(C1)C2 [Example 5A, (E)-3-(4-((1R,3R)-2-(Bicyclo[1.1.1]pentan-1-ylmethyl)-3-methyl-2,3,4,9-tetrahydro-1H-pyrido[3,4-b]indol-1-yl)-3,5-difluorophenyl)acrylic acid]
25 to 250 nM	A (A = ERα % degradation ≥80%)	22 µM·h	5.2 mL/min/kg	3.2 h	0.6 L/kg	109%	80 µM·h	24.5 µM	0.5 h	2.1 h	–	C[C@@H]1Cc2c([nH]c3ccccc23)[C@@H](c2c(F)cc(/C=C/C(=O)O)cc2F)N1[C@H]1CCOC1 [Example 8A, (E)-3-(3,5-Difluoro-4-((1R,3R)-3-methyl-2-((S)-tetrahydrofuran-3-yl)-2,3,4,9-tetrahydro-1H-pyrido[3,4-b]indol-1-yl)phenyl)acrylic acid]
≤ 25 nM	A (A = ERα % degradation ≥80%)	–	–	–	–	–	–	–	–	–	–	C[C@]12CC[C@@H]3c4ccc(O)cc4C[C@@H](CCCCCCCCC[S+]([O-])CCCC(F)(F)C(F)(F)F)[C@H]3[C@@H]1CC[C@@H]2O (stereo partly shown) [fulvestrant, reference compound]
